Test results taken from article PMC10958225, “Therapeutic potential of orally applied KB-R7943 in streptozotocin-induced neuropathy in rats” (Heliyon, 2024).
Where two headings read alike, the source gives them in different places.

Assay: Pilot PK study of orally applied KB-R7943 in control and STZ-induced diabetic rats (LC-MS/MS)
Type: in vivo, rat
Conditions: for AUC(0-inf) / Cmax / Tmax / half-life / AUC(0-t) / Kp: Wistar, rat, po, 10 mg/kg; for AUC(0-t): read-out: AUC(0-24); for Kp: read-out: AUC(0-24) tissue/AUC (0-24) plasma; for Vd (volume of distribution): dose/(λ × AUC 0–24); for Cl (clearance): dose/AUC0-24
Protocol: Chromatographic separation was achieved by injecting 5 μL of the sample extract (on each instrument) into a Zorbax SB-C8 150 mm × 4.6 mm × 1.8 μm column. The mobile phase was a mixture in a gradient mode of two components: solvent A - 0.1% formic acid in water and solvent B - 0.1% formic acid in acetonitrile. The flow rate was set to 0.400 ml/min with the following gradient program: 0.0–0.5 min 90% solvent A, 0.5–10.0 min 10% solvent A, 10.0–12.0 min 10% solvent A, 12.0–12.1 min 90% solvent A, 12.1–13.0 min 90% solvent A. Mass spectrometric detection was performed with positive electrospray (ESI(+)). Analytes were determined by selecting two characteristic target reactions (MRM transitions) and the retention time of the analytes. The following MS parameters were kept constant during the analysis: nebulizer voltage 4800 V for positive ionization. The temperature of the cone was set at 300 °C, the temperature of the heated probe at 400 °C, the gas flowed through the nebulizer at 3 l/min, and the flow rate of the drying gas was 10 l/min. Two product ions and one precursor ion were selected for analyte identification (Table 1).
200 mg of the sample (plasma, urine, homogenate) was transferred into 1.5 ml Eppendorf tubes, 10 μl of the internal standard solution was added and thoroughly mixed using a rotary shaker, and then 1 ml of the extracting solution of 0.1% formic acid in acetonitrile, was added. After ultrasonic stirring for 15 min, the tubes were centrifuged at 14,000 rpm for 5 min. Approximately 1 ml of the supernatant was decanted and transferred to a 15 ml Falcon plastic tube, 1 ml of the extracting solution (0.1% formic acid in acetonitrite) was added to the precipitate, and the extraction procedure was repeated. […] successive extracts were combined, 3 ml of hexane was added, and mixed on a rotary shaker for 5 min, after which the top layer of hexane was separated, and the purification procedure was repeated 2 more times. The purified extract was transferred to a 5 ml glass vial and evaporated to dryness in an FMS Super Vap 24 at 45 °C under nitrogen flow. 200 μL of the extractant was added to the vials, and the remains of the analyte were washed off the walls of the vial by stirring the solution on a rotary shaker for 3 min, after which the resulting solution was transferred into glass vials for HPLC analysis. With each batch of samples, appropriate matrix controls were prepared and extracted with the addition of KB- R7943 at 0, 0.1, 1, 10, 100, 1000, 5000, 20,000, and 200,000 ng/g and extracted simultaneously with the samples (Fig. 2).
Experiment 1 (Fig. 3A) was designed as a pilot PK study to assess the body distribution of orally applied KB-R7943 and to inform about some important PK parameters. Two groups, i.e., controls (n = 9) and STZ-induced diabetic models (n = 9), were included in the experiment. Each rat was placed in an individual metabolic cage and kept there until the administration of the drug. The KB-R7943 was applied once, p.o., in a 10 mg/kg dose with gavage. OraPlus was a vehiculum (16 gauge feeding tube 10 ml/kg). After applying of the KB-R7943, each rat was returned to their cage, and blood and urine samples were collected at 1st, 6th, and 24th hours (different n = 3 at each time-point). Metabolic cages were specially designed to separate feces from urine through the funnel, and a separation cone was used.
Blood samples were collected in EDTA-containing tubes with cardiopunction under ketamine-xylasine anesthesia (100 mg/kg and 10 mg/kg, respectively). After 1 h incubation (+4/+8 °C), blood was centrifugated 1000 g, and the plasma was used for the analysis after that.
Isolation of tissue samples of the heart and parts of the brain was performed after perfusion of the upper body of the rat with a phosphate-buffered saline (PBS) using a perfusion pump (BT100-2J LongerPump, Halma PLC, UK). Homogenates were prepared as 1:4 ratios (v/v) with PBS and stored at −80 °C until analysis. […]

[1] = AUC tissue/AUC plasma, 10 mg/kg p.o. once
[2] = cortex, STZ-diabetic rats, 10 mg/kg p.o. once
[3] = cortex, control rats, 10 mg/kg p.o. once
[4] = cortex, cortex, STZ-diabetic rats, 10 mg/kg p.o. once
[5] = cortex, cortex, control rats, 10 mg/kg p.o. once
[6] = heart, STZ-diabetic rats, 10 mg/kg p.o. once
[7] = heart, control rats, 10 mg/kg p.o. once
[8] = hippocampus, STZ-diabetic rats, 10 mg/kg p.o. once
[9] = hippocampus, control rats, 10 mg/kg p.o. once
[10] = hippocampus, hippocampus, STZ-diabetic rats, 10 mg/kg p.o. once
[11] = hippocampus, hippocampus, control rats, 10 mg/kg p.o. once
[12] = hypothalamus, STZ-diabetic rats, 10 mg/kg p.o. once
[13] = hypothalamus, control rats, 10 mg/kg p.o. once
[14] = hypothalamus, hypothalamus, STZ-diabetic rats, 10 mg/kg p.o. once
[15] = hypothalamus, hypothalamus, control rats, 10 mg/kg p.o. once
[16] = plasma, STZ-diabetic rats, 10 mg/kg p.o. once
[17] = plasma, control rats, 10 mg/kg p.o. once
[18] = urine, STZ-diabetic rats, 10 mg/kg p.o. once
[19] = urine, control rats, 10 mg/kg p.o. once

Q: For `N=C(N)SCCc1ccc(OCc2ccc([N+](=O)[O-])cc2)cc1` [KB-R7943, [(2-{4-[(4-nitrophenyl)methoxy]phenyl}ethyl)sulfanyl]methanimidamide], which “heart penetration, times higher in control group vs. diabetic rats” value [1] is on record?
A: 1.2 times

Q: What about the “hippocampus penetration, times higher in control group vs. diabetic rats” value [1] of the same compound?
A: over 2.5 times

Q: What about the AUC(0-inf) [2] of the same compound?
A: 1000 ng·h/mL

Q: And the Cmax [2]?
A: 103 ng/mL

Q: And the Tmax [2]?
A: 1 h

Q: What about the half-life [2] of the same compound?
A: 7.7 h

Q: And the Cmax [3]?
A: 11.5 ng/mL

Q: And the Tmax [3]?
A: 24 h

Q: What about the AUC(0-t) [4] of the same compound?
A: 880 ng·h/mL

Q: And the Kp [4]?
A: 14.5

Q: What about the AUC(0-t) [5] of the same compound?
A: 232 ng·h/mL

Q: What about the Kp [5] of the same compound?
A: 14.2

Q: What about the Cmax [6] of the same compound?
A: 5600 ng/mL

Q: And the Tmax [6]?
A: 1 h

Q: And the half-life [6]?
A: 5.7 h

Q: And the Cmax [7]?
A: 893 ng/mL

Q: And the Tmax [7]?
A: 1 h

Q: What about the half-life [7] of the same compound?
A: 7 h

Q: What about the Kp (heart, heart, STZ-diabetic rats, 10 mg/kg p.o. once) of the same compound?
A: 499

Q: What about the Kp (heart, heart, control rats, 10 mg/kg p.o. once) of the same compound?
A: 622

Q: What about the AUC(0-inf) [8] of the same compound?
A: 865 ng·h/mL

Q: What about the Cmax [8] of the same compound?
A: 57 ng/mL

Q: What about the Tmax [8] of the same compound?
A: 1 h

Q: What about the half-life [8] of the same compound?
A: 11.6 h

Q: What about the Cmax [9] of the same compound?
A: 39.6 ng/mL

Q: What about the Tmax [9] of the same compound?
A: 24 h

Q: And the AUC(0-t) [10]?
A: 645 ng·h/mL

Q: What about the Kp [10] of the same compound?
A: 10.7

Q: And the AUC(0-t) [11]?
A: 449 ng·h/mL

Q: And the Kp [11]?
A: 27.4

Q: And the AUC(0-inf) [12]?
A: 1020 ng·h/mL

Q: And the Cmax [12]?
A: 75 ng/mL

Q: And the Tmax [12]?
A: 1 h

Q: And the half-life [12]?
A: 13.7 h

Q: What about the Cmax [13] of the same compound?
A: 9.5 ng/mL

Q: And the Tmax [13]?
A: 24 h

Q: What about the AUC(0-t) [14] of the same compound?
A: 668 ng·h/mL

Q: And the Kp [14]?
A: 11

Q: And the AUC(0-t) [15]?
A: 215 ng·h/mL

Q: What about the Kp [15] of the same compound?
A: 13.1

Q: What about the AUC(0-inf) [16] of the same compound?
A: 61.7 ng·h/mL

Q: And the Cmax [16]?
A: 11 ng/mL

Q: And the Tmax [16]?
A: 1 h

Q: What about the half-life [16] of the same compound?
A: 4.2 h

Q: And the AUC(0-inf) [17]?
A: 17.7 ng·h/mL

Q: And the Cmax [17]?
A: 3.2 ng/mL

Q: And the Tmax [17]?
A: 1 h

Q: What about the half-life [17] of the same compound?
A: 6.1 h

Q: And the AUC(0-t) (plasma, plasma, STZ-diabetic rats, 10 mg/kg p.o. once)?
A: 60.6 ng·h/mL

Q: And the AUC(0-t) (plasma, plasma, control rats, 10 mg/kg p.o. once)?
A: 16.4 ng·h/mL

Q: What about the Tmax (plasma, systemic circulation after oral application, rats) of the same compound?
A: ~1 h

Q: What about the Cmax [18] of the same compound?
A: 59.3 ng/mL

Q: And the Tmax [18]?
A: 24 h

Q: And the Cmax [19]?
A: 47.2 ng/mL

Q: And the Tmax [19]?
A: 24 h

Q: And the AUC(0-t) (urine, urine, STZ-diabetic rats, 10 mg/kg p.o. once)?
A: 974 ng·h/mL

Q: And the AUC(0-t) (urine, urine, control rats, 10 mg/kg p.o. once)?
A: 727 ng·h/mL

Q: And the “β of linear regression Ln(Conc) vs time” value (cortex concentration, controls, 10 mg/kg p.o. once)?
A: β = 0.015, p = 0.703

Q: And the “β of linear regression Ln(Conc) vs time” value (cortex concentration, diabetes, 10 mg/kg p.o. once)?
A: β = −0.075, p = 0.008

Q: And the “%Extrap” value [2]?
A: 12,20%

Q: And the “ƛ (terminal slope)” value [2]?
A: −0.07

Q: What about the “%Extrap” value [3] of the same compound?
A: 142,00%

Q: What about the “ƛ (terminal slope)” value [3] of the same compound?
A: 0.02

Q: And the “β of linear regression Ln(Conc) vs time” value (heart concentration, controls, 10 mg/kg p.o. once)?
A: β = −0.107, p = 0.003

Q: What about the “β of linear regression Ln(Conc) vs time” value (heart concentration, diabetes, 10 mg/kg p.o. once) of the same compound?
A: β = −0.125, p = 0.026

Q: What about the “%Extrap” value [6] of the same compound?
A: 6,20%

Q: What about the “ƛ (terminal slope)” value [6] of the same compound?
A: −0.12

Q: And the “%Extrap” value [7]?
A: 8,4%

Q: What about the “ƛ (terminal slope)” value [7] of the same compound?
A: −0.11

Q: And the “β of linear regression Ln(Conc) vs time” value (hippocampus concentration, controls, 10 mg/kg p.o. once)?
A: β = −0.037, p = 0.283

Q: What about the “β of linear regression Ln(Conc) vs time” value (hippocampus concentration, diabetes, 10 mg/kg p.o. once) of the same compound?
A: β = −0.048, p = 0.097

Q: What about the “%Extrap” value [8] of the same compound?
A: 25,40%

Q: What about the “ƛ (terminal slope)” value [8] of the same compound?
A: −0.05

Q: What about the “ƛ (terminal slope)” value [9] of the same compound?
A: 0.04

Q: And the “β of linear regression Ln(Conc) vs time” value (hypothalamus concentration, controls, 10 mg/kg p.o. once)?
A: β = −0.007, p = 0.830

Q: What about the “β of linear regression Ln(Conc) vs time” value (hypothalamus concentration, diabetes, 10 mg/kg p.o. once) of the same compound?
A: β = −0.045, p = 0.127

Q: What about the “%Extrap” value [12] of the same compound?
A: 34,50%

Q: And the “ƛ (terminal slope)” value [12]?
A: −0.04

Q: And the “%Extrap” value [13]?
A: 111,50%

Q: What about the “ƛ (terminal slope)” value [13] of the same compound?
A: 0.01

Q: What about the “β of linear regression Ln(Conc) vs time” value (plasma concentration, controls, 10 mg/kg p.o. once) of the same compound?
A: β = 0.094, p = 0.036

Q: What about the “β of linear regression Ln(Conc) vs time” value (plasma concentration, diabetes, 10 mg/kg p.o. once) of the same compound?
A: β = 0.163, p = 0.017

Q: And the “AUC(0-24), times higher in rats with diabetes vs. controls” value (plasma, 10 mg/kg p.o. once)?
A: Over 3 times

Q: And the “Vd, times lower in rats with diabetes vs. controls” value (plasma, 10 mg/kg p.o. once)?
A: over 7 times

Q: And the “decline of the plasma concentration, rats with diabetes vs. controls” value (plasma, 10 mg/kg p.o. once)?
A: over one and half times faster decline

Q: What about the “systemic clearance, times lower in rats with diabetes vs. controls” value (plasma, 10 mg/kg p.o. once) of the same compound?
A: over 4 times

Q: And the “%Extrap” value [16]?
A: 1,90%

Q: And the “ƛ (terminal slope)” value [16]?
A: −0.16

Q: And the “Vd (volume of distribution)” value [16]?
A: 288.78 L

Q: What about the “Cl (clearance)” value [16] of the same compound?
A: 46.20 L/h

Q: What about the “%Extrap” value [17] of the same compound?
A: 7,40%

Q: And the “Vd (volume of distribution)” value [17]?
A: 2100.27 L

Q: And the “Cl (clearance)” value [17]?
A: 189.02 L/h

Q: And the “β of linear regression Ln(Conc) vs time” value (urine concentration, controls, 10 mg/kg p.o. once)?
A: β = −0.074, p = 0.158

Q: What about the “β of linear regression Ln(Conc) vs time” value (urine concentration, diabetes, 10 mg/kg p.o. once) of the same compound?
A: β = −0.041, p = 0.455

Q: What about the “%Extrap” value [18] of the same compound?
A: 196,30%

Q: What about the “ƛ (terminal slope)” value [18] of the same compound?
A: −0.04

Q: What about the “ƛ (terminal slope)” value [19] of the same compound?
A: 0.07
